The record followed here is ChEMBL document CHEMBL1139989, “Aminosuberoyl hydroxamic acids (ASHAs): a potent new class of HDAC inhibitors” (Bioorg Med Chem Lett, 2007).

Bounds are passed on as bounds.

Test [1] can be described thus: Antiproliferative activity against mouse SC9 cells by MTS assay. The class given is functional, cell-based. A general note: Formazan colour is commonly taken as a measure of viable cells.
In the next test the target is Histone deacetylase 1 (Homo sapiens, UniProt Q13547). The test can be described thus: Inhibition of human HDAC 1.
Sequence of Histone deacetylase 1 (Q13547 whole entry): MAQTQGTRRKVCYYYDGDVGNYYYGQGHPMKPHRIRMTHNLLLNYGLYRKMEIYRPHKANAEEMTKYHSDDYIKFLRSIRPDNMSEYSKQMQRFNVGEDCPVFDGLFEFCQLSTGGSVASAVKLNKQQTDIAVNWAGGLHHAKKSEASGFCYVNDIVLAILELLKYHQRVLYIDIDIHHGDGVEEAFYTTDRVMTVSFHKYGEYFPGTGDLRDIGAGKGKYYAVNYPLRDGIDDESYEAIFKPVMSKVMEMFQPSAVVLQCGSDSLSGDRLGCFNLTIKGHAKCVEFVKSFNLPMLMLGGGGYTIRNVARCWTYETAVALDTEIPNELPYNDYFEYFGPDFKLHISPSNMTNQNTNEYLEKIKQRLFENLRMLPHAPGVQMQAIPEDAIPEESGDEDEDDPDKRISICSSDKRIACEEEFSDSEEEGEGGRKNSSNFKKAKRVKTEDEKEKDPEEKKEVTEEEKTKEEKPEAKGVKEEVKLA
Another test is filed under the species Mus musculus. The test can be described thus: Decrease in body weight in nude mouse. On the set-up: scale not given: the % may be the effect or the level left. The class given is functional.
Another test has as its system HCT-116. The test can be described thus: Antitumor activity against human HCT116 cells. The class given is functional.

On to `O=C(CCCCC[C@H](NC(=O)OCc1ccccc1)C(=O)Nc1cccc2cccnc12)NO`, for which the IC50 in test [1] turned out to be 39 nM; against Histone deacetylase 1, 14.5 nM.

In test [1], `O=C(CCCCC[C@H](NC(=O)c1ccc2ccccc2n1)C(=O)Nc1cccc2cccnc12)NO` registered an IC50 of 165 nM.

Consider `O=C(CCCCC[C@H](NC(=O)c1ccccc1)C(=O)Nc1ccc2ncccc2c1)NO`, for which the IC50 in test [1] came out at 90 nM; against Histone deacetylase 1 it was 3.5 nM.

On to `O=C(CCCCC[C@H](NC(=O)OCc1ccccc1)C(=O)Nc1ccc2ncccc2c1)NO`, for which the half-inhibitory concentration (IC50) in test [1] stood at 110 nM; at Histone deacetylase 1, 7.7 nM.

Consider `O=C(CCCCC[C@H](NC(=O)c1ccccc1)C(=O)NCc1ccccc1)NO`, for which the results for the IC50 (in test [1]; on Histone deacetylase 1) were 1040 nM and 93 nM, respectively.

`O=C(CCCCC[C@H](NC(=O)c1ccccn1)C(=O)NCc1ccccc1)NO`: the figures for the IC50 (in test [1]; against Histone deacetylase 1) were 3420 nM and 120 nM, respectively.

Consider `O=C(CCCCC[C@H](NC(=O)OCc1ccccc1)C(=O)Nc1ccccc1)NO`, for which the half-inhibitory concentration (IC50) turned out to be 102 nM in test [1] and 18 nM at Histone deacetylase 1.

Turning to `O=C(CCCCC[C@H](NC(=O)c1ccccc1)C(=O)Nc1cccc2cccnc12)NO`, the results for the concentration for half-maximal inhibition (IC50) (in test [1]; against Histone deacetylase 1) were 43 nM and 9.4 nM, respectively. In the test listed under Mus musculus, this compound gave an Activity of less than 20%. Besides, the TGI entry in the test on HCT-116 is “>=50%”.

On to `O=C(CCCCC[C@H](NC(=O)OCc1ccccc1)C(=O)NCc1ccccc1)NO`, for which the IC50 in test [1] is 412 nM; on Histone deacetylase 1, 48 nM.

For the compound `O=C(CCCCC[C@H](NC(=O)c1ccccc1)C(=O)Nc1ccccc1)NO`, the half-inhibitory concentration (IC50) is 73 nM in test [1] and 12.1 nM against Histone deacetylase 1.

As to `O=C(CCCCC[C@H](NC(=O)c1ccc2ccccc2n1)C(=O)Nc1ccccc1)NO`, the values for the IC50 (in test [1]; against Histone deacetylase 1) were 33 nM and 10 nM, respectively.

Regarding `O=C(CCCCC[C@H](NC(=O)c1ccccn1)C(=O)Nc1cccc2cccnc12)NO`, the values for the concentration for half-maximal inhibition (IC50) (in test [1]; against Histone deacetylase 1) were 367 nM and 4 nM, respectively.

As for `O=C(CCCCC[C@H](NC(=O)c1ccccn1)C(=O)Nc1ccc2ncccc2c1)NO`, the figures for the half-inhibitory concentration (IC50) (in test [1]; on Histone deacetylase 1) were 756 nM and 1.3 nM, respectively.

Turning to `O=C(CCCCC[C@H](NC(=O)c1ccc2ccccc2n1)C(=O)NCc1ccccc1)NO`, the results for the IC50 (in test [1]; against Histone deacetylase 1) were 374 nM and 51.3 nM, respectively.

Turning to `O=C(CCCCC[C@H](NC(=O)c1ccccn1)C(=O)Nc1ccccc1)NO`, the results for the IC50 (in test [1]; against Histone deacetylase 1) were 250 nM and 11.1 nM, respectively. In the test filed under Mus musculus, the Activity is listed as less than 20%. Besides, the TGI result with HCT-116 was “>=50%”.

In turn, `O=C(CCCCC[C@H](NC(=O)c1ccc2ccccc2n1)C(=O)Nc1ccc2ncccc2c1)NO` gave an IC50 in test [1] of 107 nM.

For orientation: IC50 means the point on the concentration scale where inhibition reaches its midpoint.
